Molecules are shown by their SMILES.

The target of the first experiment is T1, FXR ligand binding domain (GST-FXR LBD fusion protein, human FXR aa 193-473) (Homo sapiens, UniProt Q96RI1).
T1 construct: fused on or other part: Glutathione-S-transferase (GST) fused N-terminally to the FXR LBD, used to capture the protein on glutathione SPA beads
T1 sequence (Q96RI1 211-486 limits assumed): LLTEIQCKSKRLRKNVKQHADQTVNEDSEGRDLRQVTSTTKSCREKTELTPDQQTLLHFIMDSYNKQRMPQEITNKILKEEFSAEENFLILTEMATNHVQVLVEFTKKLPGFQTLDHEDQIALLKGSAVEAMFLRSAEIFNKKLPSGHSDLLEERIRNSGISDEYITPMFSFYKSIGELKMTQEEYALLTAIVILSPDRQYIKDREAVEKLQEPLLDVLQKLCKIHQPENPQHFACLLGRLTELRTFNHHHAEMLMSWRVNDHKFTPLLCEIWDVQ
The experiment can be described thus: Radioligand binding assay (scintillation proximity, radioligand displacement). The settings on record: 40 nM GST-FXR LBD on SPA beads, test compound 6×10^−9 M to 2.5×10^−5 M, read-out: h-IC50 Binding. The method in brief:
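40 nM GST-FXR LBD, E. coli-expressed, bound to glutathione yttrium silicate SPA beads in 50 mM Hepes pH 7.4, 10 mM NaCl, 5 mM MgCl2, 0.01% CHAPS. Test compounds displace radioligand (e.g. 20 nM benzimidazolyl-acetamide ligand); bound ligand measured by scintillation proximity counting.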
For `O=C(O)c1cc(F)c(OCC(C2CCCCCC2)n2c(-c3ccc(Cl)cc3)nc3cc(F)c(F)cc32)c(F)c1` (single isomer, unassigned; (-)) [Example 132, (−)-4-{2-[2-(4-Chloro-phenyl)-5,6-difluoro-benzoimidazol-1-yl]-2-cycloheptyl-ethoxy}-3,5-difluoro-benzoic acid], the half-maximal inhibitory concentration (IC50) was found to be 0.01 µM.

Take `O=C(O)c1ccc(CCC(C2CCCCC2)n2c(-c3ccccc3)nc3cc(F)c(F)cc32)cc1` (single isomer, unassigned; (-)) [Example 143, (−)-4-[3-Cyclohexyl-3-(5,6-difluoro-2-phenyl-benzoimidazol-1-yl)-propyl]-benzoic acid]: the IC50 worked out at 0.003 µM.

With `COc1ccc(-c2nc3cc(F)c(F)cc3n2C(CCc2ccc(C(=O)O)cc2)C2CCCCC2)c(OC)n1` (single isomer, unassigned; (-)) [Example 146, (−)-4-{3-Cyclohexyl-3-[2-(2,6-dimethoxy-pyridin-3-yl)-5,6-difluoro-benzoimidazol-1-yl]-propyl}-benzoic acid], the IC50 is 0.001 µM.

Regarding `Fc1cc2nc(-c3ccc(Cl)cc3)n([C@H](COCC3CCCCC3)C3CCCCC3)c2cc1F` [Example 3, (+)-2-(4-Chloro-phenyl)-1-((S)-1-cyclohexyl-2-cyclohexylmethoxy-ethyl)-5,6-difluoro-1H-benzoimidazole], the half-maximal inhibitory concentration (IC50) came to 32.1 µM.

With `O=C(O)c1ccc(OCC(C2CCCCC2)n2c(-c3ccc(Cl)cc3)nc3cc(F)c(F)cc32)cc1` (stereo not drawn) [Example 4, 4-{2-[2-(4-Chloro-phenyl)-5,6-difluoro-benzoimidazol-1-yl]-2-cyclohexyl-ethoxy}-benzoic acid], the IC50 was 0.07 µM.

Turning to `Cc1cc(C(=O)O)ccc1OCC(C1CCCCC1)n1c(-c2ccc(Cl)cc2)nc2cc(F)c(F)cc21` (stereo not drawn) [Example 11, 4-{2-[2-(4-Chloro-phenyl)-5,6-difluoro-benzoimidazol-1-yl]-2-cyclohexyl-ethoxy}-3-methyl-benzoic acid], the concentration for half-maximal inhibition (IC50) was 0.02 µM.

Consider `O=C(O)c1ccccc1OCC(C1CCCCC1)n1c(-c2ccc(Cl)cc2)nc2cc(F)c(F)cc21` (stereo not drawn) [Example 14, 2-{2-[2-(4-Chloro-phenyl)-5,6-difluoro-benzoimidazol-1-yl]-2-cyclohexyl-ethoxy}-benzoic acid], for which the IC50 came to 2 µM.

`O=C(O)c1cccc(OCC(C2CCCCC2)n2c(-c3ccc(Cl)cc3)nc3cc(F)c(F)cc32)c1` (stereo not drawn) [Example 15, 3-{2-[2-(4-Chloro-phenyl)-5,6-difluoro-benzoimidazol-1-yl]-2-cyclohexyl-ethoxy}-benzoic acid]: the half-inhibitory concentration (IC50) came to 0.07 µM.

As to `Cc1ccc(C(=O)O)cc1OCC(C1CCCCC1)n1c(-c2ccc(Cl)cc2)nc2cc(F)c(F)cc21` (stereo not drawn) [Example 16, 3-{2-[2-(4-Chloro-phenyl)-5,6-difluoro-benzoimidazol-1-yl]-2-cyclohexyl-ethoxy}-4-methyl-benzoic acid], the half-maximal inhibitory concentration (IC50) amounted to 0.2 µM.

In the case of `Cc1c(OCC(C2CCCCC2)n2c(-c3ccc(Cl)cc3)nc3cc(F)c(F)cc32)cccc1C(=O)O` (stereo not drawn) [Example 17, 3-{2-[2-(4-Chloro-phenyl)-5,6-difluoro-benzoimidazol-1-yl]-2-cyclohexyl-ethoxy}-2-methyl-benzoic acid], the IC50 stood at 0.2 µM.

Take `O=C(O)c1ccc(OCC(C2CCCCC2)n2c(-c3ccc(Cl)cc3)nc3cc(F)c(F)cc32)cn1` (stereo not drawn) [Example 18, 5-{2-[2-(4-Chloro-phenyl)-5,6-difluoro-benzoimidazol-1-yl]-2-cyclohexyl-ethoxy}-pyridine-2-carboxylic acid]: the IC50 is 1.3 µM.

As for `O=C(O)c1ccc(OCC(C2CCCCC2)n2c(-c3ccc(Cl)cc3)nc3cc(F)c(F)cc32)nc1` (stereo not drawn) [Example 19, 6-{2-[2-(4-Chloro-phenyl)-5,6-difluoro-benzoimidazol-1-yl]-2-cyclohexyl-ethoxy}-nicotinic acid], the IC50 was 0.05 µM.

On to `O=C(O)c1cnc(OCC(C2CCCCC2)n2c(-c3ccc(Cl)cc3)nc3cc(F)c(F)cc32)c(Cl)c1` (stereo not drawn) [Example 22, 5-Chloro-6-{2-[2-(4-chloro-phenyl)-5,6-difluoro-benzoimidazol-1-yl]-2-cyclohexyl-ethoxy}-nicotinic acid], for which the IC50 was determined as 0.03 µM.

As for `Cc1nc(C(=O)O)ncc1OCC(C1CCCCC1)n1c(-c2ccc(Cl)cc2)nc2cc(F)c(F)cc21` (stereo not drawn) [Example 25, 5-{2-[2-(4-Chloro-phenyl)-5,6-difluoro-benzoimidazol-1-yl]-2-cyclohexyl-ethoxy}-4-methyl-pyrimidine-2-carboxylic acid], the IC50 came to 0.8 µM.

In the case of `O=C(O)c1cnc(OCC(C2CCCCC2)n2c(-c3ccc(Cl)cc3)nc3cc(F)c(F)cc32)c2ccsc12` (stereo not drawn) [Example 26, 4-{2-[2-(4-Chloro-phenyl)-5,6-difluoro-benzoimidazol-1-yl]-2-cyclohexyl-ethoxy}-thieno[3,2-c]pyridine-7-carboxylic acid], the concentration for half-maximal inhibition (IC50) was 0.02 µM.

As for `Fc1cc2nc(-c3ccc(Cl)cc3)n(C(COc3ccccn3)C3CCCCC3)c2cc1F` (stereo not drawn) [Example 29, 2-(4-Chloro-phenyl)-1-[1-cyclohexyl-2-(pyridin-2-yloxy)-ethyl]-5,6-difluoro-1H-benzoimidazole], the IC50 turned out to be 0.2 µM.

Regarding `O=C(O)c1cccc(OCC(C2CCCCC2)n2c(-c3ccc(Cl)cc3)nc3cc(F)c(F)cc32)n1` (stereo not drawn) [Example 30, 6-{2-[2-(4-Chloro-phenyl)-5,6-difluoro-benzoimidazol-1-yl]-2-cyclohexyl-ethoxy}-pyridine-2-carboxylic acid], the half-maximal inhibitory concentration (IC50) is 0.5 µM.

As for `COc1cc(C(=O)O)cc(OCC(C2CCCCC2)n2c(-c3ccc(Cl)cc3)nc3cc(F)c(F)cc32)n1` (stereo not drawn) [Example 31, 2-{2-[2-(4-Chloro-phenyl)-5,6-difluoro-benzoimidazol-1-yl]-2-cyclohexyl-ethoxy}-6-methoxy-isonicotinic acid], the IC50 stood at 0.6 µM.

`O=C(O)c1ccc(OCC(C2CCCCC2)n2c(-c3ccc(Cl)cc3)nc3ccccc32)cc1` (stereo not drawn) [Example 32, 4-{2-[2-(4-Chloro-phenyl)-benzoimidazol-1-yl]-2-cyclohexyl-ethoxy}-benzoic acid]: the IC50 is 1 µM.

On to `O=C(O)c1ccc(OCC(C2CCCCC2)n2c(-c3ccc(Cl)cc3)nc3ccccc32)c(F)c1` (stereo not drawn) [Example 33, 4-{2-[2-(4-Chloro-phenyl)-benzoimidazol-1-yl]-2-cyclohexyl-ethoxy}-3-fluoro-benzoic acid], for which the half-maximal inhibitory concentration (IC50) amounted to 0.5 µM.

As for `Fc1cc2nc(-c3ccc(Cl)cc3)n(C(COc3ccccc3F)C3CCCCC3)c2cc1F` (stereo not drawn) [Example 34, 2-(4-Chloro-phenyl)-1-[1-cyclohexyl-2-(2-fluoro-phenoxy)-ethyl]-5,6-difluoro-1H-benzoimidazole], the 50% inhibitory concentration (IC50) was determined as 0.04 µM.

As to `Fc1cc2nc(-c3ccc(Cl)cc3)n(C(COc3cccnc3)C3CCCCC3)c2cc1F` (stereo not drawn) [Example 35, 2-(4-Chloro-phenyl)-1-[1-cyclohexyl-2-(pyridin-3-yloxy)-ethyl]-5,6-difluoro-1H-benzoimidazole], the IC50 was found to be 0.2 µM.

On to `Fc1cc2nc(-c3ccc(Cl)cc3)n(C(COc3ccncc3)C3CCCCC3)c2cc1F` (stereo not drawn) [Example 36, 2-(4-Chloro-phenyl)-1-[1-cyclohexyl-2-(pyridin-4-yloxy)-ethyl]-5,6-difluoro-1H-benzoimidazole], for which the half-maximal inhibitory concentration (IC50) is 0.09 µM.

Regarding `O=C(O)c1ccnc(OCC(C2CCCCC2)n2c(-c3ccc(Cl)cc3)nc3cc(F)c(F)cc32)c1` (stereo not drawn) [Example 37, 2-{2-[2-(4-Chloro-phenyl)-5,6-difluoro-benzoimidazol-1-yl]-2-cyclohexyl-ethoxy}-isonicotinic acid], the 50% inhibitory concentration (IC50) is 0.4 µM.

`Fc1cc2nc(-c3ccc(Cl)cc3)n(C(COc3ccccc3)C3CCCCC3)c2cc1F` (stereo not drawn) [Example 38, 2-(4-Chloro-phenyl)-1-(1-cyclohexyl-2-phenoxy-ethyl)-5,6-difluoro-1H-benzoimidazole]: the concentration for half-maximal inhibition (IC50) was found to be 0.1 µM.

In the case of `O=C(O)c1ccc(OCC(C2CCCCC2)n2c(-c3ccc(Cl)cc3)nc3cc(F)c(F)cc32)c(C(F)(F)F)c1` (stereo not drawn) [Example 39, 4-{2-[2-(4-Chloro-phenyl)-5,6-difluoro-benzoimidazol-1-yl]-2-cyclohexyl-ethoxy}-3-trifluoromethyl-benzoic acid], the IC50 was 0.03 µM.

In the case of `O=C(O)c1c(F)cc(OCC(C2CCCCC2)n2c(-c3ccc(Cl)cc3)nc3cc(F)c(F)cc32)cc1F` (stereo not drawn) [Example 42, 4-{2-[2-(4-Chloro-phenyl)-5,6-difluoro-benzoimidazol-1-yl]-2-cyclohexyl-ethoxy}-2,6-difluoro-benzoic acid], the concentration for half-maximal inhibition (IC50) was 0.2 µM.

On to `O=C(O)COc1ccc(OCC(C2CCCCC2)n2c(-c3ccc(Cl)cc3)nc3cc(F)c(F)cc32)nc1` (stereo not drawn) [Example 45, (6-{2-[2-(4-Chloro-phenyl)-5,6-difluoro-benzoimidazol-1-yl]-2-cyclohexyl-ethoxy}-pyridin-3-yloxy)-acetic acid], for which the concentration for half-maximal inhibition (IC50) turned out to be 0.02 µM.

Still in this experiment, the particulars now being: h-IC50 Binding, 40 nM GST-FXR LBD on SPA beads, test compound 6×10^−9 M to 2.5×10^−5 M.
In turn, `O=C(O)c1ccc(OCC(C2CCCCC2)n2c(-c3ccc(Cl)cc3)nc3cc(F)c(F)cc32)c(F)c1` (stereo not drawn) [Example 7, 4-{2-[2-(4-Chloro-phenyl)-5,6-difluoro-benzoimidazol-1-yl]-2-cyclohexyl-ethoxy}-3-fluorobenzoic acid] returned an IC50 of 0.02 µM.

`O=C(O)c1ccc(OCC(C2CCCCC2)n2c(-c3ccc(Cl)cc3)nc3cc(F)c(F)cc32)c(Cl)c1` (stereo not drawn) [Example 10, 3-Chloro-4-{2-[2-(4-chloro-phenyl)-5,6-difluoro-benzoimidazol-1-yl]-2-cyclohexyl-ethoxy}-benzoic acid] displayed a 50% inhibitory concentration (IC50) of 0.03 µM.

The record behind these values is US8088930B2, “Benzimidazole derivatives” (Hoffmann-La Roche Inc., priority 2008, dated 2012).
